Results from US20260232682A1, “GSPT1 DEGRADER COMPOUNDS” (Captor Therapeutics S.A., priority 2023, published 2026).

How the values were obtained:
GSPT1-HiBiT HEK293 cells = assay: Cell Viability-CTG assay accompanying the Nano-Glo HiBiT assay; type: cell-based; conditions: 6 hours treatment, viability of GSPT1-HiBiT HEK293 cells
Procedure: In parallel, the Cell Viability-CTG assay was performed to ensure that the potential decrease of the luminescent signal observed in the Nano-Glo HiBiT assay is a result of protein degradation and not a result of decreasing cell viability. For CTG assay accompanying the Nano-Glo HiBiT assay, cells were cultured, seeded and treated as described above. After 6 hours of incubation (37° C., 5% CO2), plates were removed from the incubator and let to equilibrate to RT. Luminescent signal detection was conducted using the CellTiter-Glo Lumiescent Cell Viability Assay (Promega, cat. nr G7573). 10 μL of the Cell Titer Glo reagent was added per well, plates were shaken to facilitate lysis (460 rpm, 4 min, RT) and incubated in the dark for the following 8 min. Luminescence was read using the CLARIOstar multimode plate reader (BMG LABTECH). The raw data (the relative luminescence unit values, RLU) were uploaded under the relevant protocol and analysed in CDDVault data management platform, in a manner similar to the description above. The Mean Minimum values were calculated in CDDVault using non-linear regression and appropriate equations.

[1] = target: T1, GSPT1-HiBiT protein in GSPT1-HiBiT HEK293 cells (Homo sapiens, UniProt P15170+Q96SW2); assay: GSPT1 degradation assay using HiBiT system (Nano-Glo HiBiT lytic assay); type: cell-based; conditions: 6 hours treatment; for DC50: read-out: HiBiT lytic assay Geomean absolute DC50
T1 construct: endogenous in cells; host or cells: HEK293 (CRISPR/Cas9 knock-in of HiBiT at the GSPT1 locus)
From the text: The effect of selected compounds of the invention on GSPT1 protein levels was investigated, using the GSPT1-HiBiT HEK293 cell line and the Nano-Glo HiBiT degradation assay protocol below.
GSPT1-HiBiT HEK293 cells were generated in-house using the HEK293 parental cells (ATCC, cat. no 70016364) and the CRISPR/Cas9 system. HEK293 cells were transformed with pSpCas9-BB-2A-Puro v2.0 plasmid carrying gRNA targeting the C-terminus of GSPT1 and ssODN template containing the HiBiT tag sequence with flanking homology sequences. Neon Transfection System (Thermo Fisher Scientific) was used for electroporation. HEK293 GSPT1-HiBiT cells were cultured with DMEM Glutamax (Gibco) supplemented with 10% heat inactivated FBS (Gibco). After transfection the culture medium was changed to DMEM Glutamax with 10% heat-inactivated FBS and 1% Penicillin-Streptomycin (Biowest) supplemented with Puromycin (2 μg/ml; Invivogen) for clonal selection. In order to isolate single cell clones for further validation and analysis, limiting dilution cloning in 96-well plates was performed. When the single clones reached confluency, HiBiT Lytic Assay (Promega) was performed in order to identify HiBiT positive clones. The clone selected for further studies was verified and validated using genotyping and HiBiT Blotting (Promega).
Cells were maintained in DMEM Glutamax medium, supplemented with 1% penicillin/streptomycin and 10% Fetal Bovine Serum (FBS) at 37° C., 5% CO2. Compounds were stored frozen as 20 mM DMSO stocks.
For the Nano-Glo HiBiT assay, cells were seeded onto 384-well white solid bottom plate at 2×10^3 cells/well in 40 μL using the Agilent BioTek MultiFlo FX Multimode Dispenser and incubated overnight. Following overnight incubation (37° C., 5% CO2) cells were treated with the test compounds and vehicle only (DMSO) control using the Echo 555 Liquid Handler. Twelve data-point compound titration curve with concentrations ranging from 10 μM to 0.03 nM was used. Final DMSO concentration was kept constant at 0.25% v/v across the assay plate. After 6 hours of incubation (37° C., 5% CO2), plates were removed from the incubator and let to equilibrate to RT. Luminescent signal detection was conducted using the Nano-Glo HiBiT Lytic Detection System (Promega, cat. nr N3050). Nano-Glo HiBiT Lytic Reagent was prepared freshly by diluting the LgBiT Protein (1:100 vol/vol) and the Nano-Glo HiBiT Lytic Substrate (1:50 vol/vol) in the relevant volume of the Nano-Glo HiBiT Lytic Buffer. 40 μL of the HiBiT Lytic Reagent was added per well, plates were shaken to facilitate lysis (350 rpm, 5 min, RT) and incubated in the dark for the following 10 min. Luminescence was read using the PHERAstar multimode plate reader (BMG LABTECH). The raw data (the relative luminescence unit values, RLU) were uploaded under the relevant protocol and analysed in CDDVault data management platform. Luminescence (RLU) values were normalized to the controls, and reported absolute DC50 values and Dmax values were calculated in CDDVault using non-linear regression and appropriate equations.

[2] = target: [GSPT1]-[compound of formula (I)]-[CRBN/DDB1] complex (Homo sapiens, UniProt P15170+Q96SW2); assay: AlphaLISA ternary complex formation assay (GSPT1); type: binding; conditions: 0.5 h; 1 μM compound; normalized to reference compound CC-885; read-out: Normalized AlphaLISA ternary complex average signal at 1 μM molecule
Procedure, shortened: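 Biotinylated GSPT1 on streptavidin donor beads and 6×His-CRBN/DDB1 on anti-His acceptor beads (each 200 nM before mixing) in HBS pH 7.4 with 0.1% Tween-20 and 1 mM DTT, 2% DMSO final, 30 min at 25 °C. AlphaLISA luminescence is normalized between DMSO background and the reference compound's maximum.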

T1 sequence (P15170 whole entry): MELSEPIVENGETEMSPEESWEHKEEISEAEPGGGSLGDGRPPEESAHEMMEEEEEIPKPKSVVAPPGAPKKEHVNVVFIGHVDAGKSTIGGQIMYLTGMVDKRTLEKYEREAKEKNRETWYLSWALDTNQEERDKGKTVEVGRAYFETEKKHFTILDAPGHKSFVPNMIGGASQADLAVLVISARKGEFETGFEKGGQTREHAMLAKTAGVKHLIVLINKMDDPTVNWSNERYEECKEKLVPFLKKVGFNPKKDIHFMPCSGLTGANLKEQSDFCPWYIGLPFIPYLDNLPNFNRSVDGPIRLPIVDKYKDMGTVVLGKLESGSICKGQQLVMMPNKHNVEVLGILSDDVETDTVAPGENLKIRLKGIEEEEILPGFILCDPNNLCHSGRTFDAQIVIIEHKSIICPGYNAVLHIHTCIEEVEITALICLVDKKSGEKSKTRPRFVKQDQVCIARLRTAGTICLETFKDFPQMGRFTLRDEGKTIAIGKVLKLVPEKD
T1 sequence (Q96SW2 whole entry): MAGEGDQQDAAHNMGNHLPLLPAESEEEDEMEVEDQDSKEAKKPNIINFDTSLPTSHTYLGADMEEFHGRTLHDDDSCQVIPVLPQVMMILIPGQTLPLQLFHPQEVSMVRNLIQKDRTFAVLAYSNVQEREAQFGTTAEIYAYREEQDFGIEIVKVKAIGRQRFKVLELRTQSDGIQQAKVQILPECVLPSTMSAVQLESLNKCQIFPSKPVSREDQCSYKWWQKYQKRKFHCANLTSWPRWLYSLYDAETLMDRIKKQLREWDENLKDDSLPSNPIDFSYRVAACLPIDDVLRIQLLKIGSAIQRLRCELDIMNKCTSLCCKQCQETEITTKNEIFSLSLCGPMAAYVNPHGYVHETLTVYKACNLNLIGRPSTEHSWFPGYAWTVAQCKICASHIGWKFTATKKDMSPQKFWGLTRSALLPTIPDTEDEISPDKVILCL
T1 sequence (Q16531 whole entry partner): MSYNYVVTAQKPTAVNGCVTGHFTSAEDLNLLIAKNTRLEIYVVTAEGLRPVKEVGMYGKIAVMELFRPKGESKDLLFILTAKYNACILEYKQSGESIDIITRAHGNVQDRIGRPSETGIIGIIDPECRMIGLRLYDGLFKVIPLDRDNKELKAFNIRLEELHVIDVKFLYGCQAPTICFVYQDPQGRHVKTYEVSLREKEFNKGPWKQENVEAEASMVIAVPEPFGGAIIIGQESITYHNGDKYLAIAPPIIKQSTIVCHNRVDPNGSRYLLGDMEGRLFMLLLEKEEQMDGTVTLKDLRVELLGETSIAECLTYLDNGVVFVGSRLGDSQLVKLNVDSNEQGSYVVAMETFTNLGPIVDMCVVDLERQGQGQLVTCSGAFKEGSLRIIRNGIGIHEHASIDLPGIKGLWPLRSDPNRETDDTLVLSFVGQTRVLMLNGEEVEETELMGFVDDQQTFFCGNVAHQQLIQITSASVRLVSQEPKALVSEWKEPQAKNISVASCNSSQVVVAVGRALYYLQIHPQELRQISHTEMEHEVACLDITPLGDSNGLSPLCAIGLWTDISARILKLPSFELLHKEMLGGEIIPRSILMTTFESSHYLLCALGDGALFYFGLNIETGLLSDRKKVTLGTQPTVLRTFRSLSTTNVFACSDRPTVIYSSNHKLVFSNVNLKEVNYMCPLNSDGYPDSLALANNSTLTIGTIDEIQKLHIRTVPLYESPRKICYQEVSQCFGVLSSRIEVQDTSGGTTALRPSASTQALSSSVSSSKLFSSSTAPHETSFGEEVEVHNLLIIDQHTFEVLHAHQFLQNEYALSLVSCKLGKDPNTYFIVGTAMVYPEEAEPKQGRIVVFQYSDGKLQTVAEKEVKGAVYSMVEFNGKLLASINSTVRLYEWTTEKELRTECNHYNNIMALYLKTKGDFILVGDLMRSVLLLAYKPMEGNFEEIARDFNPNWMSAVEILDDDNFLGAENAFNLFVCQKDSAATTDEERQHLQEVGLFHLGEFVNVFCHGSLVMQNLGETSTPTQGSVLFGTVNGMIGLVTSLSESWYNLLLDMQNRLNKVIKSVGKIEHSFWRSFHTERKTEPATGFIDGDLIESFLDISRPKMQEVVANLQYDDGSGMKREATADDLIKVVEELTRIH
[GSPT1]-[compound of formula (I)]-[CRBN/DDB1] complex, sequence (P15170 whole entry): as the sequence (P15170 whole entry) above
[GSPT1]-[compound of formula (I)]-[CRBN/DDB1] complex, sequence (Q96SW2 whole entry): as the sequence (Q96SW2 whole entry) above
[GSPT1]-[compound of formula (I)]-[CRBN/DDB1] complex, sequence (Q16531 whole entry partner): as the sequence (Q16531 whole entry partner) above

| Compound | Dmax [1] [%] | DC50 [1] [nM] | activation at 1 µM [2] [%] | CTG assay Mean minimum (GSPT1-HiBiT HEK293 cells) |
| --- | --- | --- | --- | --- |
| COc1cc(C)c(Cl)cc1NC(=O)OCc1ccc2cc(C3CCC(=O)NC3=O)c(C)nc2c1 (stereo not drawn) [Compound 21, (3-(2,6-dioxopiperidin-3-yl)-2-methylquinolin-7-yl)methyl (5-chloro-2-methoxy-4-methylphenyl)carbamate] | ≥ 75 | 10 to 50 | > 50 | ++++ (++++≥75% of viability of the HiBiT-GSPT1 HEK293 cells) |
| Cc1ccc(NC(=O)OCc2ccc3cc(N4CCC(=O)NC4=O)c(C)nc3c2)cc1Cl [Compound 28, (3-(2,4-dioxotetrahydropyrimidin-1(2H)-yl)-2-methylquinolin-7-yl)methyl (3-chloro-4-methylphenyl)carbamate] | ≥ 75 | 10 to 50 | 10 to 50 | ++++ (++++≥75% of viability of the HiBiT-GSPT1 HEK293 cells) |
| Cc1nc2cc(COC(=O)Nc3cc(C(C)(C)C)no3)ccc2cc1C1CCC(=O)NC1=O (stereo not drawn) [Compound 30, (3-(2,6-dioxopiperidin-3-yl)-2-methylquinolin-7-yl)methyl (3-(tert-butyl)isoxazol-5-yl)carbamate] | ≥ 75 | < 10 | > 50 | ++++ (++++≥75% of viability of the HiBiT-GSPT1 HEK293 cells) |
| Cc1nc2cc(COC(=O)Nc3csc(-c4ccccc4)c3)ccc2cc1C1CCC(=O)NC1=O (stereo not drawn) [Compound 37, (3-(2,6-dioxopiperidin-3-yl)-2-methylquinolin-7-yl)methyl (5-phenylthiophen-3-yl)carbamate] | ≥ 75 | 10 to 50 | 10 to 50 | ++++ (++++≥75% of viability of the HiBiT-GSPT1 HEK293 cells) |

Second part, led by results:

| Dmax [1] [%] | DC50 [1] [nM] | activation at 1 µM [2] [%] | Compound | CTG assay Mean minimum (GSPT1-HiBiT HEK293 cells) |
| --- | --- | --- | --- | --- |
| ≥ 75 | < 10 | 10 to 50 | Cc1nc2cc(COC(=O)Nc3ccc(-c4ccccc4)nc3)ccc2cc1C1CCC(=O)NC1=O (stereo not drawn) [Compound 20, (3-(2,6-dioxopiperidin-3-yl)-2-methylquinolin-7-yl)methyl (6-phenylpyridin-3-yl)carbamate] | ++++ (++++≥75% of viability of the HiBiT-GSPT1 HEK293 cells) |
| ≥ 75 | 10 to 50 | > 50 | Cc1ccc(NC(=O)OCc2cc(F)c3cc(C4CCC(=O)NC4=O)c(C)nc3c2)cc1Cl (stereo not drawn) [Compound 22, (3-(2,6-dioxopiperidin-3-yl)-5-fluoro-2-methylquinolin-7-yl)methyl (3-chloro-4-methylphenyl)carbamate] | ++++ (++++≥75% of viability of the HiBiT-GSPT1 HEK293 cells) |
| ≥ 75 | 50 to 100 | 10 to 50 | Cc1ccc(NC(=O)NCc2ccc3cc(N4CCC(=O)NC4=O)c(C)nc3c2)cc1Cl [Compound 27, 1-(3-chloro-4-methylphenyl)-3-((3-(2,4-dioxotetrahydropyrimidin-1(2H)-yl)-2-methylquinolin-7-yl)methyl)urea] | ++++ (++++≥75% of viability of the HiBiT-GSPT1 HEK293 cells) |
| ≥ 75 | 10 to 50 | 10 to 50 | Cc1ccc(NC(=O)OCc2ccc3nc(C)c(N4CCC(=O)NC4=O)cc3c2)cc1Cl [Compound 29, (3-(2,4-dioxotetrahydropyrimidin-1(2H)-yl)-2-methylquinolin-6-yl)methyl (3-chloro-4-methylphenyl)carbamate] | ++++ (++++≥75% of viability of the HiBiT-GSPT1 HEK293 cells) |
| ≥ 75 | 10 to 50 | > 50 | Cc1ccc(NC(=O)CCc2ccc3cc(C4CCC(=O)NC4=O)c(C)nc3c2)cc1Cl (stereo not drawn) [Compound 32, N-(3-chloro-4-methylphenyl)-3-(3-(2,6-dioxopiperidin-3-yl)-2-methylquinolin-7-yl)propanamide] | ++++ (++++≥75% of viability of the HiBiT-GSPT1 HEK293 cells) |
